The NIST ThermoML archive (doi:10.1016/j.tca.2016.08.008)

O=P([O-])([O-])[O-].[Tb+3] [terbium orthophosphate]
101.33 kPa, Metastable crystal
Conditions	mass density [kg/m3]	molar entropy [J/K/mol]
7 K, Vacuum adiabatic calorimetry	–	0.0744
8 K, Vacuum adiabatic calorimetry	–	0.1113
9 K, Vacuum adiabatic calorimetry	–	0.1586
10 K, Vacuum adiabatic calorimetry	–	0.2174
12 K, Vacuum adiabatic calorimetry	–	0.3747
14 K, Vacuum adiabatic calorimetry	–	0.5915
16 K, Vacuum adiabatic calorimetry	–	0.8724
18 K, Vacuum adiabatic calorimetry	–	1.219
20 K, Vacuum adiabatic calorimetry	–	1.627
25 K, Vacuum adiabatic calorimetry	–	2.889
30 K, Vacuum adiabatic calorimetry	–	4.414
35 K, Vacuum adiabatic calorimetry	–	6.129
40 K, Vacuum adiabatic calorimetry	–	7.99
45 K, Vacuum adiabatic calorimetry	–	9.975
50 K, Vacuum adiabatic calorimetry	–	12.07
55 K, Vacuum adiabatic calorimetry	–	14.26
60 K, Vacuum adiabatic calorimetry	–	16.53
70 K, Vacuum adiabatic calorimetry	–	21.26
80 K, Vacuum adiabatic calorimetry	–	26.15
90 K, Vacuum adiabatic calorimetry	–	31.12
100 K, Vacuum adiabatic calorimetry	–	36.12
110 K, Vacuum adiabatic calorimetry	–	41.09
120 K, Vacuum adiabatic calorimetry	–	46.02
130 K, Vacuum adiabatic calorimetry	–	50.9
140 K, Vacuum adiabatic calorimetry	–	55.72
150 K, Vacuum adiabatic calorimetry	–	60.46
160 K, Vacuum adiabatic calorimetry	–	65.13
170 K, Vacuum adiabatic calorimetry	–	69.73
180 K, Vacuum adiabatic calorimetry	–	74.26
190 K, Vacuum adiabatic calorimetry	–	78.71
200 K, Vacuum adiabatic calorimetry	–	83.09
210 K, Vacuum adiabatic calorimetry	–	87.39
220 K, Vacuum adiabatic calorimetry	–	91.63
230 K, Vacuum adiabatic calorimetry	–	95.79
240 K, Vacuum adiabatic calorimetry	–	99.88
250 K, Vacuum adiabatic calorimetry	–	103.9
260 K, Vacuum adiabatic calorimetry	–	107.9
270 K, Vacuum adiabatic calorimetry	–	111.7
280 K, Vacuum adiabatic calorimetry	–	115.6
290 K, Vacuum adiabatic calorimetry	–	119.3
298 K, X-ray diffraction	6088	–
300 K, Vacuum adiabatic calorimetry	–	123
310 K, Vacuum adiabatic calorimetry	–	126.6
320 K, Vacuum adiabatic calorimetry	–	130.2
325 K, Vacuum adiabatic calorimetry	–	132
340 K, Small sample (50 mg) DSC	–	137.1
360 K, Small sample (50 mg) DSC	–	143.9
380 K, Small sample (50 mg) DSC	–	150.4
400 K, Small sample (50 mg) DSC	–	156.7
420 K, Small sample (50 mg) DSC	–	162.7
440 K, Small sample (50 mg) DSC	–	168.6
460 K, Small sample (50 mg) DSC	–	174.3
480 K, Small sample (50 mg) DSC	–	179.8
500 K, Small sample (50 mg) DSC	–	185.2
520 K, Small sample (50 mg) DSC	–	190.4
540 K, Small sample (50 mg) DSC	–	195.4
560 K, Small sample (50 mg) DSC	–	200.3
580 K, Small sample (50 mg) DSC	–	205.1
600 K, Small sample (50 mg) DSC	–	209.7
620 K, Small sample (50 mg) DSC	–	214.2
640 K, Small sample (50 mg) DSC	–	218.6
660 K, Small sample (50 mg) DSC	–	222.8
680 K, Small sample (50 mg) DSC	–	227
700 K, Small sample (50 mg) DSC	–	231
720 K, Small sample (50 mg) DSC	–	235
740 K, Small sample (50 mg) DSC	–	238.8
760 K, Small sample (50 mg) DSC	–	242.6
780 K, Small sample (50 mg) DSC	–	246.2
800 K, Small sample (50 mg) DSC	–	249.8
820 K, Small sample (50 mg) DSC	–	253.3
840 K, Small sample (50 mg) DSC	–	256.8
860 K, Small sample (50 mg) DSC	–	260.1
880 K, Small sample (50 mg) DSC	–	263.4
900 K, Small sample (50 mg) DSC	–	266.7
920 K, Small sample (50 mg) DSC	–	269.8
940 K, Small sample (50 mg) DSC	–	272.9
960 K, Small sample (50 mg) DSC	–	275.9
980 K, Small sample (50 mg) DSC	–	278.9
1000 K, Small sample (50 mg) DSC	–	281.8
1009 K, Small sample (50 mg) DSC	–	283.1

Conditions	Triple point temperature [K]
Crystal 2, DSC	1643
